The results in this text go back to PMC2248166, “Quantitative peptide binding motifs for 19 human and mouse MHC class I molecules derived using positional scanning combinatorial peptide libraries” (Immunome Research, 2008).

Where a SMILES comes first, the peptide text is derived from it.

For this assay, the target named is HLA B*1501 (Homo sapiens, UniProt P01889, A329T/A93T/A95T/C349S/D201E/D98Y/E187L/E204Q/E69M/E70A/K202T/N87E/Q94N/R155S/R180W/S121R/S35A/S48A/V306I/V36M/Y140S/Y91S). In words: biochemical. The class given is binding.

What is called IC50 is the midpoint of a concentration-inhibition curve. The low end stands for greater potency, the high end for weaker potency. Consider `CC[C@H](C)[C@H](NC(=O)[C@@H](N)Cc1c[nH]cn1)C(=O)N[C@@H](CC(N)=O)C(=O)N[C@@H](CCCCN)C(=O)N[C@@H](CC(C)C)C(=O)N[C@@H](Cc1ccccc1)C(=O)N[C@@H](CO)C(=O)N[C@H](C(=O)N[C@@H](Cc1ccccc1)C(=O)O)C(C)C` [3102.0997] (H-HINKLFSVF-OH), for which the IC50 came to 0.92 nM.
`CC[C@H](C)[C@H](NC(=O)[C@H](CO)NC(=O)[C@H](C)N)C(=O)N[C@H](C(=O)N[C@@H](C)C(=O)N[C@@H](Cc1ccccc1)C(=O)N[C@@H](CCCCN)C(=O)N[C@@H](CO)C(=O)N[C@@H](CCSC)C(=O)O)[C@@H](C)O` [3102.0999] (H-ASITAFKSM-OH): the IC50 stood at 25 nM.
As to `CC[C@H](C)[C@H](NC(=O)[C@H](C)NC(=O)[C@@H](N)CC(C)C)C(=O)N1CCC[C@H]1C(=O)N[C@@H](C)C(=O)N[C@H](C(=O)N[C@@H](CCC(=O)O)C(=O)N[C@@H](Cc1ccccc1)C(=O)N[C@@H](Cc1ccccc1)C(=O)O)[C@@H](C)O` [3102.1001] (H-LAIPATEFF-OH), the IC50 is 4.2 nM. Against the preceding compound, the IC50 is about 6-fold lower.
In the case of `CC[C@H](C)[C@H](NC(=O)[C@H](CO)NC(=O)[C@@H](N)CC(C)C)C(=O)N[C@@H](Cc1ccccc1)C(=O)N[C@@H](Cc1ccccc1)C(=O)N[C@H](C(=O)N[C@H](C(=O)N[C@H](C(=O)N[C@@H](C)C(=O)O)C(C)C)C(C)C)[C@@H](C)CC` [3102.1004] (H-LSIFFIVVA-OH) it was 82 nM; in that of `CC[C@H](C)[C@H](NC(=O)[C@H](CC(N)=O)NC(=O)[C@H](C)N)C(=O)N[C@H](C(=O)N[C@@H](Cc1c[nH]cn1)C(=O)N[C@@H](Cc1ccccc1)C(=O)N[C@@H](CS)C(=O)N[C@@H](CO)C(=O)N[C@@H](Cc1ccccc1)C(=O)O)[C@@H](C)O` [3102.1005] (H-ANITHFCSF-OH), 15 nM; in that of `CC[C@H](C)[C@H](NC(=O)[C@H](CC(N)=O)NC(=O)[C@H](C)NC(=O)[C@H](CCCNC(=N)N)NC(=O)CNC(=O)[C@@H](N)CC(C)C)C(=O)N[C@H](C(=O)N[C@@H](Cc1c[nH]cn1)C(=O)N[C@@H](Cc1ccccc1)C(=O)O)[C@@H](C)O` [3102.1006] (H-LGRANITHF-OH), 6.7 nM.
The compound `CC(C)C[C@H](NC(=O)[C@H](CC(C)C)NC(=O)[C@@H](N)Cc1ccccc1)C(=O)N[C@@H](CO)C(=O)N[C@@H](CC(C)C)C(=O)N[C@H](C(=O)N[C@@H](CCC(=O)O)C(=O)N[C@@H](Cc1ccccc1)C(=O)N[C@@H](Cc1ccccc1)C(=O)O)C(C)C` [3102.1008] (H-FLLSLVEFF-OH) had a half-inhibitory concentration (IC50) of 0.82 nM.
Turning to `CSCC[C@H](NC(=O)[C@H](CO)NC(=O)[C@H](CS)NC(=O)[C@H](CO)NC(=O)[C@@H](NC(=O)[C@@H](N)CCCCN)C(C)C)C(=O)N[C@@H](CC(C)C)C(=O)N[C@@H](CCC(=O)O)C(=O)N[C@@H](Cc1ccccc1)C(=O)O` [3102.1010] (H-KVSCSMLEF-OH), the IC50 amounted to 0.84 nM.
With `CC[C@H](C)[C@H](NC(=O)[C@@H](NC(=O)CN)[C@@H](C)O)C(=O)N[C@@H](CCSC)C(=O)N[C@H](C(=O)N[C@@H](CO)C(=O)N[C@@H](CCC(=O)O)C(=O)N[C@@H](Cc1c[nH]cn1)C(=O)N[C@@H](Cc1ccccc1)C(=O)O)C(C)C` [3102.1012] (H-GTIMVSEHF-OH), the IC50 stood at 57 nM. This IC50 is about 68-fold higher than that of the compound before.
In the case of `CC[C@H](C)[C@H](NC(=O)[C@H](CCSC)NC(=O)[C@H](C)N)C(=O)N[C@@H](CCC(=O)O)C(=O)N[C@@H](CC(C)C)C(=O)N[C@@H](CS)C(=O)NCC(=O)N[C@@H](C)C(=O)N[C@@H](Cc1ccccc1)C(=O)O` [3102.1013] (H-AMIELCGAF-OH) it was 0.34 nM; in that of `CC(C)C[C@H](NC(=O)[C@H](Cc1ccccc1)NC(=O)[C@H](C)NC(=O)CNC(=O)[C@H](CS)NC(=O)[C@H](CC(C)C)NC(=O)[C@@H](N)CCC(=O)O)C(=O)N[C@@H](Cc1ccccc1)C(=O)N[C@@H](Cc1ccc(O)cc1)C(=O)O` [3102.1015] (H-ELCGAFLFY-OH), 7.5 nM; in that of `CC[C@H](C)[C@H](NC(=O)[C@H](CC(C)C)NC(=O)[C@@H](N)CO)C(=O)N[C@@H](Cc1ccc(O)cc1)C(=O)N[C@@H](CC(C)C)C(=O)N[C@@H](CS)C(=O)N[C@H](C(=O)N[C@@H](Cc1ccccc1)C(=O)N[C@@H](CCSC)C(=O)O)[C@@H](C)O` [3102.1017] (H-SLIYLCTFM-OH), 4.5 nM.
In the case of `CC[C@H](C)[C@H](N)C(=O)N[C@H](C(=O)N[C@@H](CO)C(=O)N[C@@H](CO)C(=O)N[C@@H](CO)C(=O)N[C@H](C(=O)N[C@@H](CC(C)C)C(=O)N[C@@H](Cc1ccc(O)cc1)C(=O)N[C@@H](Cc1ccccc1)C(=O)O)[C@@H](C)O)[C@@H](C)CC` [3102.1018] (H-IISSSTLYF-OH) it was 1.1 nM; in that of `CC(C)C[C@H](NC(=O)[C@H](CCCCN)NC(=O)[C@H](CCCCN)NC(=O)[C@H](CC(C)C)NC(=O)[C@@H](N)CC(C)C)C(=O)N[C@@H](CC(N)=O)C(=O)N[C@@H](CO)C(=O)N[C@@H](Cc1ccccc1)C(=O)NCC(=O)O` [3102.1020] (H-LLKKLNSFG-OH), 45 nM; in that of `CC(C)C[C@H](NC(=O)[C@@H](N)CC(C)C)C(=O)N[C@@H](Cc1c[nH]cn1)C(=O)N[C@@H](CS)C(=O)N[C@H](C(=O)N[C@H](C(=O)N[C@@H](CCC(=O)O)C(=O)N[C@@H](CO)C(=O)N[C@@H](Cc1ccc(O)cc1)C(=O)O)[C@@H](C)O)C(C)C` [3102.1022] (H-LLHCVTESY-OH), 1 nM.
Compound `CC[C@H](C)[C@H](NC(=O)[C@H](CCC(=O)O)NC(=O)[C@H](Cc1ccccc1)NC(=O)[C@H](Cc1ccccc1)NC(=O)[C@@H](NC(=O)[C@@H](N)Cc1ccc(O)cc1)C(C)C)C(=O)N[C@H](C(=O)N[C@@H](Cc1c[nH]cn1)C(=O)N[C@@H](Cc1ccccc1)C(=O)O)[C@@H](C)CC` [3102.1024] (H-YVFFEIIHF-OH) came in with an IC50 of 0.69 nM. This IC50 and that of the compound before are within 1.5-fold of each other.
The compound `CSCC[C@H](NC(=O)[C@H](Cc1c[nH]cn1)NC(=O)[C@H](CCCCN)NC(=O)[C@H](CC(N)=O)NC(=O)[C@@H](NC(=O)[C@H](CC(N)=O)NC(=O)[C@H](CO)NC(=O)[C@H](CCC(N)=O)NC(=O)[C@@H](N)CCCCN)[C@@H](C)O)C(=O)O` [3102.1026] (H-KQSNTNKHM-OH) returned an IC50 of 28 nM.
In the case of `CSCC[C@H](NC(=O)[C@H](Cc1c[nH]cn1)NC(=O)[C@H](CCCCN)NC(=O)[C@H](CC(N)=O)NC(=O)[C@@H](NC(=O)[C@@H](N)CC(N)=O)[C@@H](C)O)C(=O)N[C@@H](CC(C)C)C(=O)N[C@@H](CCC(=O)O)C(=O)N[C@@H](Cc1ccccc1)C(=O)O` [3102.1027] (H-NTNKHMLEF-OH) it was 12 nM; in that of `CC(C)C[C@H](NC(=O)[C@H](C)NC(=O)[C@@H](NC(=O)[C@H](Cc1ccccc1)NC(=O)[C@H](CS)NC(=O)[C@H](Cc1ccccc1)NC(=O)[C@H](Cc1ccc(O)cc1)NC(=O)[C@@H](NC(=O)[C@@H](N)CC(C)C)[C@@H](C)O)C(C)C)C(=O)O` [3102.1028] (H-LTYFCFVAL-OH), 29 nM; in that of `CC[C@H](C)[C@H](NC(=O)[C@H](CO)NC(=O)[C@H](CC(C)C)NC(=O)[C@H](CC(C)C)NC(=O)[C@@H](N)CC(C)C)C(=O)N[C@@H](CC(N)=O)C(=O)N[C@@H](CO)C(=O)N[C@@H](CO)C(=O)N[C@@H](Cc1ccccc1)C(=O)O` [3102.1035] (H-LLLSINSSF-OH), 0.88 nM.
With `CC[C@H](C)[C@H](NC(=O)[C@@H](N)CCSC)C(=O)N[C@@H](CCCCN)C(=O)N[C@@H](CC(N)=O)C(=O)N[C@@H](CC(C)C)C(=O)N[C@H](C(=O)N[C@@H](CCC(N)=O)C(=O)N[C@@H](CC(C)C)C(=O)N[C@@H](Cc1ccccc1)C(=O)O)[C@@H](C)O` [3102.1037] (H-MIKNLTQLF-OH) the figure was 5.7 nM.
